Laboratory results taken from ChEMBL document CHEMBL5584218, “Design and synthesis of unique morphinan-type molecules: Their application to the search for the unexplored binding domain between opioid receptors and morphinan ligands” (Bioorg Med Chem Lett, 2024).

What was measured:
Type in all cases: cell membranes
[1] = target: Kappa-type opioid receptor (Homo sapiens, UniProt P41145); experiment: Displacement of [3H]U-69593 from human KOR extracted from HEK293 cell membrane assessed as inhibition constant
[2] = target: Delta-type opioid receptor (Homo sapiens, UniProt P41143); experiment: Displacement of [3H]DPDPE from human DOR extracted from HEK293 cell membrane assessed as inhibition constant
[3] = target: Mu-type opioid receptor (Homo sapiens, UniProt P35372); experiment: Displacement of [3H]-DAMGO from human MOR extracted from HEK293 cell membrane assessed as inhibition constant
Sequence of Mu-type opioid receptor (P35372 whole entry): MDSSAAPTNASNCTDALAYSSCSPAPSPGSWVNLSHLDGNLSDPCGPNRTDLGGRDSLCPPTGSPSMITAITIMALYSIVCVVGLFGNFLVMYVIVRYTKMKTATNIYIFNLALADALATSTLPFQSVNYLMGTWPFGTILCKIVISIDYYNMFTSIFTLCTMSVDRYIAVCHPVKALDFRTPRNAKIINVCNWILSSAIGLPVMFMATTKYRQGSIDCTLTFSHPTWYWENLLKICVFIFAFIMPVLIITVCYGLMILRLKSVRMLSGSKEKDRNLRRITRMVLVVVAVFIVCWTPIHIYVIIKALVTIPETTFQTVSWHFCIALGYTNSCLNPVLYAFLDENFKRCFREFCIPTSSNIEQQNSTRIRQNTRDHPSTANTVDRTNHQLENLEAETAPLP

Sequence of Delta-type opioid receptor (P41143 whole entry): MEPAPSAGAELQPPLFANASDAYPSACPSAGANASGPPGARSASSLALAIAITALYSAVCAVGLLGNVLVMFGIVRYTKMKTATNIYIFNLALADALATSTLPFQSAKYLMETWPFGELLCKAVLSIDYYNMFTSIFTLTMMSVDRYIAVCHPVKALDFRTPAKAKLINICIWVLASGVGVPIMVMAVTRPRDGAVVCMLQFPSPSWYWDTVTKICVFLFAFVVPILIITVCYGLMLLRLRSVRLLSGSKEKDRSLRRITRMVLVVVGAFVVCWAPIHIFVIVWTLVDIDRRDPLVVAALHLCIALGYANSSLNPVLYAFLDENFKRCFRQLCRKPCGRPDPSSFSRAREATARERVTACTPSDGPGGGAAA
Sequence of Kappa-type opioid receptor (P41145 whole entry): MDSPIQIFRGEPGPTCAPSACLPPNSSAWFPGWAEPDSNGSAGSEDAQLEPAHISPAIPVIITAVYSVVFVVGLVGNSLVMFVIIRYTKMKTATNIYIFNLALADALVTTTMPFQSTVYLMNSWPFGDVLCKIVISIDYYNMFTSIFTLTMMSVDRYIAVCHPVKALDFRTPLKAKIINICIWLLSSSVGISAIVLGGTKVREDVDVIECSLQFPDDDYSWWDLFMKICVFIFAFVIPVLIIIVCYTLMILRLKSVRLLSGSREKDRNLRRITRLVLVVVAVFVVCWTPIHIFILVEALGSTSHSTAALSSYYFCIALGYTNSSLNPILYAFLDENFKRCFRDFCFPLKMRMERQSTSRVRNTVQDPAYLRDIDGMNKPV

Compound	Ki [1] [µM]	Ki [2] [µM]	Ki [3] [µM]
CN1CN2CC[C@]34c5c6ccc(O)c5OC3C(=O)CC[C@]24C1C6 (some centres undefined)	0.31	0.16	0.15
C[C@@H](O)C[C@H]1NC2Cc3ccc(O)c4c3[C@]35CCN1[C@]23CCC(=O)C5O4 (some centres undefined)	0.39	0.62	0.069
O=C1CC[C@@]23C4Cc5ccc(O)c6c5[C@@]2(CCN3CN4CCc2ccccc2)C1O6 (some centres undefined)	0.0052	0.025	0.022
C[C@H](O)C[C@H]1NC2Cc3ccc(O)c4c3[C@]35CCN1[C@]23CCC(=O)C5O4 (some centres undefined)	0.12	0.32	0.057
N[C@@]12CCC(=O)C3Oc4c(O)ccc5c4[C@@]31CCN(CC1CC1)C2C5 (some centres undefined)	0.0018	0.019	0.00082
CC(=O)C(C(C)=O)=C1N(CC2CC2)C2Cc3ccc(O)c4c3[C@]35CCN1[C@]23CCC(=O)C5O4 (some centres undefined)	1.4	1.3	0.69
O=C1CC[C@]23C4[C@@H](CN(CC5CC5)C[N@@]42)[C@]32c3cccc(O)c3OC12 (some centres undefined)	0.021	0.064	0.02
CC(=O)/C=C1/NC2Cc3ccc(O)c4c3[C@]35CCN1[C@]23CCC(=O)C5O4 (some centres undefined)	0.31	> 10	0.38
